Experimental findings from paper PMC7281150, “Inspired by Sea Urchins: Warburg Effect Mediated Selectivity of Novel Synthetic Non-Glycoside 1,4-Naphthoquinone-6S-Glucose Conjugates in Prostate Cancer” (Marine Drugs, 2020) are described below.

SMILES strings stand for the structures.

For one series, the system named is 22Rv1 cells. Kind of series: Analysis of mitochondrial membrane potential (JC-1, FACS). The conditions noted are these: 22Rv1, 50 µM, 2 h. The class given is cell-based, human. The protocol:
The drop down of mitochondrial membrane potential (ΔΨm) was measured using staining with ΔΨm-sensitive JC-1 dye (5,5′,6,6′-Tetrachloro-1,1′,3,3′-tetraethyl-imidacarbocyanine iodide) and flow cytometry technique. Cells (10^5 cells/well) were seeded in 12-well plates and incubated overnight. […] The cells were trypsinized, pelleted, resuspended in 100 µL of 2 µM JC-1/PBS, incubated for 1 h (37 °C, 5% CO2, in the dark), and analyzed by flow cytometry technique.
As to `N#CC(C#N)=NNc1cccc(Cl)c1` [CCCP, 2-[2-(3-chlorophenyl)hydrazinylyidene]propanedinitrile, reference compound], the “cells containing depolarized mitochondria (JC-1)” value is listed as 94±0.3%.

The same series, now with this note: 22Rv1, 50 µM, 48 h.
With `N#CC(C#N)=NNc1cccc(Cl)c1` [CCCP, 2-[2-(3-chlorophenyl)hydrazinylyidene]propanedinitrile, reference compound], the “cells containing depolarized mitochondria (JC-1)” value came to 92.1±1.8%.

The next series has as its system 22Rv1 cells. Kind of series: Analysis of intracellular ROS level (CM-H2DCFDA, FACS). The class given is cell-based, human. As to conditions: 22Rv1, 200 μM, 2 h. The protocol: Intracellular ROS levels were accessed using the ROS-sensitive CM-H2DCFDA reagent (Cat. No. C6827, Molecular probes, Invitrogen, Eugene, OR, USA). The experiment was performed as previously described with slight modifications. In brief, 22Rv1 cells (10^5 cells/well) were seeded in 12-well plates and incubated overnight. The media was changed with freshly made pre-warmed staining solution (4 µM CM-H2DCFDA/PBS, 0.5 mL/well) and incubated in the dark (37 °C, 5% CO2) for 30 min. Then, the staining solution was exchanged with 1 mL/well of pre-warmed PBS containing the investigated compounds or H2O2 (positive control) at the indicated concentrations and the cells were incubated for 2 h. Next, the cells were trypsinized, resuspended in pre-warmed PBS (200 µL/sample) and immediately analyzed by FACS according to the manufacture′s protocol.
Consider `OO` [H2O2, reference compound], for which the “ROS level (CM-H2DCFDA, FACS)” value is recorded as 68.4±1.5%.

Test system in a further series: not given
Assay: not given
Conditions: not given
Usually melting point stands for the temperature, or range, at which the solid turns liquid. `CC(=O)O[C@@H]1O[C@H](CSC2=C(SC[C@H]3O[C@@H](OC(C)=O)[C@H](OC(C)=O)[C@@H](OC(C)=O)[C@@H]3OC(C)=O)C(=O)c3c(O)c(C)c(C)c(O)c3C2=O)[C@@H](OC(C)=O)[C@H](OC(C)=O)[C@H]1OC(C)=O` [SAB-9, 2,3-Di(1,2,3,4-tetra-O-acetyl-6-deoxy-β-D-glucopyranos-6-ylthio)-5,8-dihydroxy-6,7-dimethyl-1,4-naphthoquinone] gave a melting point of 202 to 205 °C.

The compound `CC(=O)O[C@@H]1O[C@H](CSc2c(C)c(O)c3c(c2O)C(=O)C(C)=C(C)C3=O)[C@@H](OC(C)=O)[C@H](OC(C)=O)[C@H]1OC(C)=O` [SAB-15, 6-(1,2,3,4-Tetra-O-acetyl-6-deoxy-β-D-glucopyranos-6-ylthio)-5,8-dihydroxy-2,3,7-trimethyl-1,4-naphthoquinone] had a melting point of 148 to 151 °C.

Consider `CC(=O)O[C@@H]1O[C@H](CSc2c(C)c(O)c3c(c2O)C(=O)C(O)=C(O)C3=O)[C@@H](OC(C)=O)[C@H](OC(C)=O)[C@H]1OC(C)=O` [SAB-3, 6-(1,2,3,4-Tetra-O-acetyl-6-deoxy-β-D-glucopyranos-6-ylthio)-2,3,5,8-tetrahydroxy-7-methyl-1,4-naphthoquinone], for which the melting point was in the range of 207 to 211 °C.

For `CC(=O)O[C@@H]1O[C@H](CSC2=C(C)C(=O)c3c(O)cccc3C2=O)[C@@H](OC(C)=O)[C@H](OC(C)=O)[C@H]1OC(C)=O` [SAB-7, 2-(1,2,3,4-Tetra-O-acetyl-6-deoxy-β-D-glucopyranos-6-ylthio)-5-hydroxy-3-methyl-1,4-naphthoquinone], the melting point is 160 to 161 °C.

`CC(=O)O[C@@H]1O[C@H](CSC2=C(Cl)C(=O)c3c(O)c(Cl)c(Cl)c(O)c3C2=O)[C@@H](OC(C)=O)[C@H](OC(C)=O)[C@H]1OC(C)=O` [SAB-19, 2-(1,2,3,4-Tetra-O-acetyl-6-deoxy-β-D-glucopyranos-6-ylthio)-3,6,7-trichloro-5,8-dihydroxy-1,4-naphthoquinone] showed a melting point of 156 to 159 °C.

Take `CCc1c(O)c2c(c(O)c1SC[C@H]1O[C@@H](OC(C)=O)[C@H](OC(C)=O)[C@@H](OC(C)=O)[C@@H]1OC(C)=O)C(=O)C(C)=C(C)C2=O` [SAB-17, 6-(1,2,3,4-Tetra-O-acetyl-6-deoxy-β-D-glucopyranos-6-ylthio)-7-ethyl-5,8-dihydroxy-2,3-dimethyl-1,4-naphthoquinone]: the melting point is 179 to 182 °C.

`COc1c(O)c2c(c(O)c1SC[C@H]1O[C@@H](OC(C)=O)[C@H](OC(C)=O)[C@@H](OC(C)=O)[C@@H]1OC(C)=O)C(=O)C(O)=CC2=O` [SAB-5, 7-(1,2,3,4-Tetra-O-acetyl-6-deoxy-β-D-glucopyranos-6-ylthio)-2,5,8-trihydroxy-6-methoxy-1,4-naphthoquinone]: the melting point lay within 109 to 112 °C.

`CCC1=C(O)C(=O)c2c(O)c(SC[C@H]3O[C@@H](OC(C)=O)[C@H](OC(C)=O)[C@@H](OC(C)=O)[C@@H]3OC(C)=O)c(OC)c(O)c2C1=O` [SAB-11, 7-(1,2,3,4-Tetra-O-acetyl-6-deoxy-β-D-glucopyranos-6-ylthio)-3-ethyl-2,5,8-trihydroxy-6-methoxy-1,4-naphthoquinone] gave a melting point of 167 to 171 °C.

Regarding `CC(=O)Oc1cccc2c1C(=O)C=C(SC[C@H]1O[C@@H](OC(C)=O)[C@H](OC(C)=O)[C@@H](OC(C)=O)[C@@H]1OC(C)=O)C2=O` [SAB-25, 2-(1,2,3,4-Tetra-O-acetyl-6-deoxy-β-D-glucopyranos-6-ylthio)-5-acetoxy-1,4-naphthoquinone], the melting point lay within 172 to 175 °C.

`CC(=O)O[C@@H]1O[C@H](CSC2=CC(=O)c3c(O)c(C)c(C)c(O)c3C2=O)[C@@H](OC(C)=O)[C@H](OC(C)=O)[C@H]1OC(C)=O` [SAB-1, 2-(1,2,3,4-Tetra-O-acetyl-6-deoxy-β-D-glucopyranos-6-ylthio)-5,8-dihydroxy-6,7-dimethyl-1,4-naphthoquinone]: the melting point lay within 203 to 205 °C.

`CC(=O)O[C@@H]1O[C@H](CSC2=CC(=O)c3c(O)ccc(O)c3C2=O)[C@@H](OC(C)=O)[C@H](OC(C)=O)[C@H]1OC(C)=O` [SAB-21, 2-(1,2,3,4-Tetra-O-acetyl-6-deoxy-β-D-glucopyranos-6-ylthio)-5,8-dihydroxy-1,4-naphthoquinone]: the melting point is 207 to 210 °C.
